Data reported in patent US6458831B1, “Use of two plant phenols in the treatment of arteriosclerosis” (Council of Scientific and Industrial Research, priority 2000, dated 2002).

Experiments:
[1] = In vitro DPPH free radical scavenging antioxidant potency; conditions: Tris-HCl buffer pH 7.4, 45 minutes in dark, absorbency at 517 nm, references probucol and α-tocopherol
Protocol: In vitro evaluation of free radical scavenging antioxidant potency:
Antioxidant activity of the compounds ((−)-Matairesinol and (−)-wikstromol) were tested for their capacity/potency to scavenger most widely used free radical 2,2-diphenyl-1-[…] radical (DPPH). The well-accepted and tested probucol and α-tocopherol were taken as reference compounds. 1 mg/ml DMSO concentration of the compounds [(−)-Matairesinol and (−)-wikstromol] were prepared and subsequently, serially diluted to lower concentrations with DMSO […] of test compounds were reconstituted to 1 ml in Tris-HCl buffer (pH 7.4) equal volume of 500 μm of DPPH radical dissolved in ethanol was reacted with this. After incubation for 45 minutes in dark, the absorbency at 517 nm was recorded. Radical with no compound was taken as control for calculation of % radical scavenging activity. All the readings were recorded in triplicate.

[2] = Effectiveness on administration at 250 mg/kg of body weight; type: in vivo; conditions: dosage of 250 mg/kg of body weight
CAMP phosphodiesterase = conditions: cited from earlier work
[3] = biological target: T1, human sex hormone-binding globulin (SHBG) (Homo sapiens, UniProt P04278); conditions: cited from earlier work
T1 sequence (P04278 30-402): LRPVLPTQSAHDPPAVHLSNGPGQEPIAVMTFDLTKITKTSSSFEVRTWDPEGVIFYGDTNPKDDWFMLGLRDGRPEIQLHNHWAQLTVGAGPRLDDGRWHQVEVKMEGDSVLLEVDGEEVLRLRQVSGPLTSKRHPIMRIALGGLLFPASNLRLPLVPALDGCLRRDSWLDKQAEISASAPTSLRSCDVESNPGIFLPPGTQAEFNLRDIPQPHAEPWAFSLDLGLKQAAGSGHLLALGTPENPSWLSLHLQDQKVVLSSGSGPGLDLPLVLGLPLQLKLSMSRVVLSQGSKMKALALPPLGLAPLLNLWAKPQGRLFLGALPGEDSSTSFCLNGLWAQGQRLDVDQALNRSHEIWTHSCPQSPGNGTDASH

[4] = tested on: p-388 lymphocyte leukemia; conditions: cited from earlier work
HIV = conditions: cited from earlier work

| SMILES | antioxidant/radical scavenging potency compared with reference standards [1] | effectiveness when administered [2] | CAMP phosphodiesterase inhibition activity (CAMP phosphodiesterase) | binding of H-labeled 5α-dihydrotestosterone (DHT) to human SHBG [3] | activity against p-388 lymphocyte leukemia [4] | anti-HIV activity (HIV) |
| --- | --- | --- | --- | --- | --- | --- |
| COc1cc(C[C@H]2COC(=O)[C@@H]2Cc2ccc(O)c(OC)c2)ccc1O [(−)-Matairesinol, 4,4^1-dihydroxy-3, 3^1-dimethoxylignan-9, 9^1-olide] | more potent antioxidant/radical scavenging potency than reference standards | highly effective | exhibits CAMP phosphodiesterase inhibition activity | reduce the binding | – | – |
| COc1cc(C[C@@H]2COC(=O)[C@@]2(O)Cc2ccc(O)c(OC)c2)ccc1O [(−)-wikstromol, 4,4^1,8-trihydroxy-3, 3^1-dimethoxyliganan-9, 9^1-olide] | more potent antioxidant/radical scavenging potency than reference standards | highly effective | – | – | active against p-388 lymphocyte leukemia | anti-HIV activity |
